Data taken from PubChem BioAssay AID2696 (Johns Hopkins Ion Channel Center, 2010).
pIC50: −log10 of the molar value.

These compounds were tested against Short transient receptor potential channel 6 (Mus musculus) (UniProt Q61143) (assay: TRPC6 inhibitor potency, dose response, cell-based, mouse TRPC6, HEK293, membrane potential (AID 2696)). Settings: TRPC6-expressing HEK293 cells, membrane potential dye fluorescence, acetylcholine-stimulated.
Sequence of Short transient receptor potential channel 6 (Mus musculus) (Q61143 whole entry, looked up): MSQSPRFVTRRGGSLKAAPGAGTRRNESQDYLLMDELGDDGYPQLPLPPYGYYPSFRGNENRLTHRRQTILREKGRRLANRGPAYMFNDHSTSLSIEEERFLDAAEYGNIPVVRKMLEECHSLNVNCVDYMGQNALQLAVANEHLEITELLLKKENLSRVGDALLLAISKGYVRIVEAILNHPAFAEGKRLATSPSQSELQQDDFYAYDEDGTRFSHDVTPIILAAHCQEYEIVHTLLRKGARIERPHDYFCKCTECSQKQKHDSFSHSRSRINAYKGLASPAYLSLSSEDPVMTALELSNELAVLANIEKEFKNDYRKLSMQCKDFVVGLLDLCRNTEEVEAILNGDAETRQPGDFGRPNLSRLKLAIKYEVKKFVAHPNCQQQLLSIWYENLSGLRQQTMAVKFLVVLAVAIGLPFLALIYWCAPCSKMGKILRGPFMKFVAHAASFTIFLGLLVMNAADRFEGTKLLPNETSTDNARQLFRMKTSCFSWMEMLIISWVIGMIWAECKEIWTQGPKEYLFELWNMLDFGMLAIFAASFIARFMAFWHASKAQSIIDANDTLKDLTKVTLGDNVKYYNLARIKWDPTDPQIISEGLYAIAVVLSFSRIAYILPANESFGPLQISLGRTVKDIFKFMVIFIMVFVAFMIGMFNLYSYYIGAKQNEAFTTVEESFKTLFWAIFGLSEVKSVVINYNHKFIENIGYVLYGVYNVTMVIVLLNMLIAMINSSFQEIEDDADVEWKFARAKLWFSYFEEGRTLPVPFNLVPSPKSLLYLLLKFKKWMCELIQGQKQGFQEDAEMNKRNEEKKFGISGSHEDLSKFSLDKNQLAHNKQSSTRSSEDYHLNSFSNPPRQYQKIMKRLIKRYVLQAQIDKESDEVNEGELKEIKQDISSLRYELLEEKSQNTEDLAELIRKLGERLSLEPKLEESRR

Point of comparison: `CN1CCN(C2=Nc3cc(Cl)ccc3Nc3ccccc32)CC1`, pIC50 4.80. Against it:
- COc1ccccc1N1CCN(Cc2ccc(O)c3ncccc23)CC1 — 0.40 log units lower, 4.40
- Cc1cc(N2CCN(C)CC2)ccc1NC(=O)c1ccc(-c2ccc(Cl)cc2)o1 — 0.45 log units lower, 4.35
- Cc1ccc(C(O)(CCN2CCCCC2)c2ccccc2)cc1 (centres undefined) — within 0.2 log units, 4.70
- Cc1ccc(C23CC4CC(CC(CN)(C4)C2)C3)cc1 — 0.40 log units lower, 4.40
- C[N+](C)(C)CCOC(=O)C1(c2ccccc2)CCCC1 — 0.25 log units higher, 5.05
- O=[N+]([O-])c1cc([N+](=O)[O-])c2c(=Nc3ccccc3)n(-c3ccccc3)n(O)c2c1 — 0.50 log units lower, 4.30
- CCN(CC)c1ccc2cc(C(N)=O)/c(=N\NC(=O)c3ccncc3)oc2c1 — 0.50 log units lower, 4.30
- COc1ccccc1-n1c(-c2ccccc2)c[n+]2c1CCc1ccccc1-2 — within 0.2 log units, 4.70
- CC(NC(=O)Nc1nnc(C(F)(F)F)s1)(C(F)(F)F)C(F)(F)F — within 0.2 log units, 4.65
- Cc1cccc[n+]1CC(=O)N1c2ccccc2Sc2ccccc21 — 0.55 log units higher, 5.35
- OC(C#CCCN1CCCCC1)(c1ccccc1)c1ccccc1 — 0.40 log units lower, 4.40
- Cc1ccc(-c2nc(C(=O)NCCCN3CCOCC3)cc3c2[nH]c2ccccc23)cc1 — 0.50 log units lower, 4.30
- COc1ccc(-n2nc(C(=O)c3cccs3)cc(-c3nc4ccccc4[nH]3)c2=N)cc1 — 0.50 log units lower, 4.30
- CC(C)N1CCC2(CC1)N=C(c1ccc3c(c1)OCO3)CC(c1cc(Cl)ccc1O)N2 (centres undefined) — 0.65 log units lower, 4.15
- COc1ccc(-c2cc(=Nc3ccc(C)cc3)c3ccccc3o2)cc1 — 0.45 log units lower, 4.35
- C[n+]1ccc(/C=N/Nc2nc(Cl)c(C#N)c(Cl)c2Cl)cc1 — 0.40 log units lower, 4.40
- Cc1cccc(C(=O)NNC2=C(C(=O)C(F)(F)F)CCC2)c1O — 0.45 log units lower, 4.35
- NCCCC(=O)N1c2ccccc2Sc2ccccc21 — 0.45 log units lower, 4.35
- COC(=O)c1ccc(CN2CCN(C3CCCC3)C(CCO)C2)cc1 (centres undefined) — 0.35 log units lower, 4.45
- Cc1ccc(SC(=O)c2c([N+](=O)[O-])c(C)nn2C)cc1 — 0.35 log units lower, 4.45
- CN1CCN(CCC(C#N)(c2ccccc2)c2ccccc2)CC1 — 0.40 log units lower, 4.40
- CCN(CC)CCCNc1nc(-n2nc(C)cc2C)nc2sc3c(c12)CC(C)(C)OC3 — within 0.2 log units, 4.65
- Cc1cc(C)c2nc(C)cc(Nc3ccc(C(=O)NCCO)cc3)c2c1 — 0.45 log units lower, 4.35
- C[N+]12CCC(CC1)C(OC(=O)C(O)(c1ccccc1)c1ccccc1)C2 (centres undefined) — 2.60 log units higher, 7.40
- COC(=O)c1ccc(NC(=O)N2CCCC(C(=O)c3ccccc3OC)C2)cc1 (centres undefined) — 0.70 log units lower, 4.10
- CCOC(=O)N1CCN(Cc2nc(-c3ccc(Cl)cc3)no2)CC1 — 0.70 log units lower, 4.10
- CCN(CC)CC(=O)Nc1cc(N(C)C)nc2ccccc12 — 0.65 log units lower, 4.15
- COc1ccccc1Nc1nc(NCC2CCCO2)c2ccccc2n1 (centres undefined) — 0.70 log units lower, 4.10
- CCOC(=O)c1ccc(NC(=O)CC2COc3ccccc3O2)cc1 (centres undefined) — 0.60 log units lower, 4.20
- CSCc1cc(N(C)c2ccccc2)nc(-c2ccccn2)n1 — 0.25 log units lower, 4.55
- Cn1c(=O)c(C#N)c(-c2ccc(F)cc2)c2cc(C(=O)c3cc(Cl)cc(Cl)c3O)cnc21 — 0.45 log units lower, 4.35
- Cc1onc(-c2c(F)cccc2Cl)c1C(=O)NC(=S)Nc1c(C)n(C)n(-c2ccccc2)c1=O — 0.40 log units lower, 4.40
- COc1cc(-c2nc3ccc(C)cn3c2Nc2ccc3c(c2)OCCO3)ccc1O — 0.45 log units lower, 4.35
- CCCC(CCC)C(=O)OC[N+](C)(C)CCOC(=O)C(O)(c1ccccc1)C1CCCC1 (centres undefined) — 0.95 log units higher, 5.75
- CN(C)CCNS(=O)(=O)c1ccc(N2CCN(c3ccc(F)cc3)CC2)c([N+](=O)[O-])c1 — 0.55 log units lower, 4.25
- CCn1c2c(c(=N)c3ccccc31)CCC2 — 0.50 log units lower, 4.30
- COC(=O)c1[nH]c2ccccc2c1NC(=O)CN1CCN(C/C=C/c2ccccc2)CC1 — 0.50 log units lower, 4.30
- COc1ccc(N2CCN(S(=O)(=O)CCNC(=O)COc3ccccc3C)CC2)cc1 — 0.40 log units lower, 4.40
- CCC(C)N(CCNC(=O)CC1Oc2ccc(C)cc2NC1=O)C1CCCCC1 (centres undefined) — the same, 4.80
- O=C(OCCN1CCCC1)C1(c2ccccc2)CCCC1 — the same, 4.80
- CC(C)(C)c1ccc(Cn2c(=N)n(CC(O)c3ccco3)c3ccccc32)cc1 (centres undefined) — 0.45 log units lower, 4.35
- CC1CCN(Cc2ccc(NC(=O)CC3Oc4ccccc4NC3=O)cc2)CC1 (centres undefined) — 0.85 log units higher, 5.65
- C[N+](C)(C)C/C=C1/COCO1 — within 0.2 log units, 4.95
- CN(C)C(C)(C)/C=C/C(O)(c1ccccc1)c1ccccc1 — within 0.2 log units, 4.75
- CN1CCC(OC(=O)C2c3ccccc3Oc3ccccc32)CC1 — 1.35 log units higher, 6.15
- OC(CCN1CCCCC1)(c1ccccc1)c1ccccc1 — 0.75 log units higher, 5.55
- Cc1ccc(CNc2ccc3c(c2)ncn3C(C)(C)C)cc1 — 0.45 log units lower, 4.35
- COc1cccc(Nc2nc(NCCO)c3ccccc3n2)c1 — 0.60 log units lower, 4.20
- C[C@H]1OC[C@@H](C[N+](C)(C)C)O1 — 0.55 log units higher, 5.35
- COC(=O)c1ccc(NC2(C#N)C(=O)Nc3ccccc32)cc1 (centres undefined) — 0.50 log units lower, 4.30
- CCOc1cccc(=NC2CCCCC2)c2c(C)n(C)c(C)c12 — 0.50 log units lower, 4.30
- O=C(NC(Nc1nc2ccc([N+](=O)[O-])cc2s1)(C(F)(F)F)C(F)(F)F)c1ccccc1 — 0.25 log units higher, 5.05
- CC[N+](C)(CC)CCC(c1ccccc1)C1CCCCC1 (centres undefined) — 0.55 log units higher, 5.35
- O=C(CSc1c2c(nc3ccc(Cl)cc13)CCCC2)NCCCN1CCOCC1 — 0.40 log units lower, 4.40
- CCCC(CCC)C(=O)OC1C[C@H]2CC[C@@H](C1)[N+]2(C)C (some centres undefined) — 0.65 log units higher, 5.45
- Fc1ccc2[nH]c3c(c2c1)CN(C(=S)NCc1ccccc1)CC3 — 0.30 log units lower, 4.50
- CC[N+](C)(CC)CCC/C(=N/O)C(O)(c1ccccc1)c1ccccc1 — the same, 4.80
- CCOC(=O)c1ccc(NC(=S)NCc2ccco2)cc1 — 0.50 log units lower, 4.30
